{"source": "ChEMBL document CHEMBL1268983", "about": "“Functionalized benzophenone, thiophene, pyridine, and fluorene thiosemicarbazone derivatives as inhibitors of cathepsin L” (Bioorg Med Chem Lett, 2010)", "key": {"Procathepsin L": {"biological_target": "Procathepsin L (Homo sapiens, UniProt P07711)", "sequence (P07711 whole entry)": "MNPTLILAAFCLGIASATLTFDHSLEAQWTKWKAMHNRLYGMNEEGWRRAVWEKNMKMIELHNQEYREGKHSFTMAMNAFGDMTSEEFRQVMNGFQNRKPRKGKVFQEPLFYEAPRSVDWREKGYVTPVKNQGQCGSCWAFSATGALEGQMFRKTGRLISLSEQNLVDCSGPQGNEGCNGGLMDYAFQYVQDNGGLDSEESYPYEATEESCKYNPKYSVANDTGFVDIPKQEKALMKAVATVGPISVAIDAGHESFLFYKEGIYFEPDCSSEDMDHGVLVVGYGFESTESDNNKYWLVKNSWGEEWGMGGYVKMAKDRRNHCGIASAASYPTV", "experiment": "Inhibition of human liver cathepsin L after 5 mins by microplate reader analysis"}, "Cathepsin B": {"biological_target": "Cathepsin B (Homo sapiens, UniProt P07858)", "experiment": "Inhibition of human liver cathepsin B after 5 mins by microplate reader analysis"}, "NCI-H460": {"test_system": "NCI-H460", "experiment": "Cytotoxicity against human NCI-H460 cells after 48 hrs by SRB assay", "type": "functional", "conditions": "NCI-H460, 48 h"}, "DU-145": {"test_system": "DU-145", "experiment": "Cytotoxicity against human DU145 cells after 48 hrs by SRB assay", "type": "functional", "conditions": "DU-145, 48 h"}}, "data": [{"smiles": "NC(=S)N/N=C(/c1cccc(Br)c1)c1sccc1Br", "values": [{"measurement": "IC50", "setting": "Procathepsin L", "value": 0.37, "unit": "µM"}, {"measurement": "IC50", "setting": "Cathepsin B", "value": "> 10", "unit": "µM"}]}, {"smiles": "NC(=S)N/N=C(/c1ccccc1)c1cccc(O)c1", "values": [{"measurement": "IC50", "setting": "Procathepsin L", "value": "> 10", "unit": "µM"}, {"measurement": "IC50", "setting": "Cathepsin B", "value": "> 10", "unit": "µM"}]}, {"smiles": "CC(C)(C)[Si](C)(C)Oc1cccc(/C(=N\\NC(N)=S)c2cccc(Br)c2)c1", "values": [{"measurement": "IC50", "setting": "Procathepsin L", "value": "> 10", "unit": "µM"}, {"measurement": "IC50", "setting": "Cathepsin B", "value": "> 10", "unit": "µM"}]}, {"smiles": "NC(=S)NN=C1c2ccccc2-c2ccccc21", "values": [{"measurement": "IC50", "setting": "Procathepsin L", "value": "> 10", "unit": "µM"}, {"measurement": "IC50", "setting": "Cathepsin B", "value": "> 10", "unit": "µM"}]}, {"smiles": "COc1ccc(/C(=N\\NC(N)=S)c2cc(OC)c(OC)c(OC)c2)cc1O", "values": [{"measurement": "IC50", "setting": "Procathepsin L", "value": 3.6, "unit": "µM"}, {"measurement": "IC50", "setting": "Cathepsin B", "value": 1.42, "unit": "µM"}]}, {"smiles": "NC(=S)NN=C(c1ccccc1)c1ccccc1", "note": "[BENZOPHENONE-THIOSEMICARBAZONE]", "values": [{"measurement": "IC50", "setting": "Procathepsin L", "value": "> 10", "unit": "µM"}, {"measurement": "IC50", "setting": "Cathepsin B", "value": "> 10", "unit": "µM"}]}, {"smiles": "NC(=S)N/N=C(\\c1cccc(O)c1)c1cccc(Br)c1", "values": [{"measurement": "GI50", "setting": "NCI-H460", "value": 23.3, "unit": "µM"}, {"measurement": "GI50", "setting": "DU-145", "value": 21.6, "unit": "µM"}, {"measurement": "IC50", "setting": "Procathepsin L", "value": 0.131, "unit": "µM"}, {"measurement": "IC50", "setting": "Cathepsin B", "value": "> 10", "unit": "µM"}]}, {"smiles": "CC(C)(C)[Si](C)(C)Oc1ccc(/C(=N\\NC(N)=S)c2cccc(Br)c2)cc1Br", "values": [{"measurement": "IC50", "setting": "Procathepsin L", "value": "> 10", "unit": "µM"}, {"measurement": "IC50", "setting": "Cathepsin B", "value": "> 10", "unit": "µM"}]}, {"smiles": "NC(=S)N/N=C(/c1cccc(Br)c1)c1cc(O)cc(Br)c1", "values": [{"measurement": "IC50", "setting": "Procathepsin L", "value": 0.232, "unit": "µM"}, {"measurement": "IC50", "setting": "Cathepsin B", "value": "> 10", "unit": "µM"}]}, {"smiles": "NC(=S)N/N=C(\\c1cccnc1)c1cccc(Br)c1", "values": [{"measurement": "IC50", "setting": "Procathepsin L", "value": 1, "unit": "µM"}, {"measurement": "IC50", "setting": "Cathepsin B", "value": "> 10", "unit": "µM"}]}, {"smiles": "NC(=S)N/N=C(/c1cccc(Br)c1)c1ccc2c(c1)CCCC2", "values": [{"measurement": "IC50", "setting": "Procathepsin L", "value": 9.65, "unit": "µM"}, {"measurement": "IC50", "setting": "Cathepsin B", "value": "> 10", "unit": "µM"}]}, {"smiles": "CC(C)(C)[Si](C)(C)Oc1cc(Br)cc(/C(=N\\NC(N)=S)c2cccc(Br)c2)c1", "values": [{"measurement": "IC50", "setting": "Procathepsin L", "value": "> 10", "unit": "µM"}, {"measurement": "IC50", "setting": "Cathepsin B", "value": "> 10", "unit": "µM"}]}, {"smiles": "NC(=S)N/N=C(/c1ccccc1)c1cccnc1", "values": [{"measurement": "IC50", "setting": "Procathepsin L", "value": "> 10", "unit": "µM"}, {"measurement": "IC50", "setting": "Cathepsin B", "value": "> 10", "unit": "µM"}]}, {"smiles": "NC(=S)N/N=C(\\c1ccc(Br)nc1)c1cccc(Br)c1", "values": [{"measurement": "IC50", "setting": "Procathepsin L", "value": "> 10", "unit": "µM"}, {"measurement": "IC50", "setting": "Cathepsin B", "value": "> 10", "unit": "µM"}]}, {"smiles": "NC(=S)N/N=C(/c1cccc(Br)c1)c1cc(Br)cs1", "values": [{"measurement": "IC50", "setting": "Procathepsin L", "value": 0.814, "unit": "µM"}, {"measurement": "IC50", "setting": "Cathepsin B", "value": "> 10", "unit": "µM"}]}, {"smiles": "CC(=O)Oc1cccc(/C(=N\\NC(N)=S)c2cccc(Br)c2)c1", "values": [{"measurement": "IC50", "setting": "Procathepsin L", "value": 0.151, "unit": "µM"}, {"measurement": "IC50", "setting": "Cathepsin B", "value": 1.6, "unit": "µM"}]}, {"smiles": "NC(=S)N/N=C(\\Cc1ccccc1)c1ccccc1", "values": [{"measurement": "IC50", "setting": "Procathepsin L", "value": 5.41, "unit": "µM"}, {"measurement": "IC50", "setting": "Cathepsin B", "value": "> 10", "unit": "µM"}]}, {"smiles": "NC(=S)NN=C1c2cc(Br)ccc2-c2ccc(Br)cc21", "values": [{"measurement": "IC50", "setting": "Procathepsin L", "value": "> 10", "unit": "µM"}, {"measurement": "IC50", "setting": "Cathepsin B", "value": "> 10", "unit": "µM"}]}, {"smiles": "NC(=S)N/N=C(/c1cccc(Br)c1)c1cccnc1Br", "values": [{"measurement": "IC50", "setting": "Procathepsin L", "value": "> 10", "unit": "µM"}, {"measurement": "IC50", "setting": "Cathepsin B", "value": "> 10", "unit": "µM"}]}, {"smiles": "NC(=S)N/N=C(/c1cccc(Br)c1)c1ccc(Br)s1", "values": [{"measurement": "IC50", "setting": "Procathepsin L", "value": 0.931, "unit": "µM"}, {"measurement": "IC50", "setting": "Cathepsin B", "value": "> 10", "unit": "µM"}]}, {"smiles": "NC(=S)N/N=C(/c1ccccc1)c1cccs1", "values": [{"measurement": "IC50", "setting": "Procathepsin L", "value": "> 10", "unit": "µM"}, {"measurement": "IC50", "setting": "Cathepsin B", "value": "> 10", "unit": "µM"}]}, {"smiles": "NC(=S)N/N=C(/c1cccc(Br)c1)C1CCCCC1", "values": [{"measurement": "IC50", "setting": "Procathepsin L", "value": "> 10", "unit": "µM"}, {"measurement": "IC50", "setting": "Cathepsin B", "value": "> 10", "unit": "µM"}]}, {"smiles": "NC(=S)N/N=C(/c1cccc(Br)c1)c1cccc(OCc2ccccc2)c1", "values": [{"measurement": "IC50", "setting": "Procathepsin L", "value": "> 10", "unit": "µM"}, {"measurement": "IC50", "setting": "Cathepsin B", "value": "> 10", "unit": "µM"}]}, {"smiles": "NC(=S)N/N=C(/c1cccc(Br)c1)c1cccc(Br)c1O", "values": [{"measurement": "IC50", "setting": "Procathepsin L", "value": "> 10", "unit": "µM"}, {"measurement": "IC50", "setting": "Cathepsin B", "value": "> 10", "unit": "µM"}]}, {"smiles": "NC(=S)N/N=C(/c1cccc(Br)c1)c1ccc(O)c(Br)c1", "values": [{"measurement": "IC50", "setting": "Procathepsin L", "value": 0.126, "unit": "µM"}, {"measurement": "IC50", "setting": "Cathepsin B", "value": 9.49, "unit": "µM"}]}]}
